Assay results reported in patent EP0556482B1, “Propyl endopeptidase inhibitor” (SNOW BRAND MILK PRODUCTS CO., LTD., priority 1991, dated 1993).
Read-outs that look alike come from different tables or passages of the source. *1 amine or outer side, *2 acyl side, *3 side chain or, on linkers, in order; H or OH if unused. Where a SMILES comes first, the peptide text is derived from it. Bridges are numbered along the chain shown (N, C = ends). [ ]: non-standard residue; d: D form. The star is where a group is joined. Undeca(2Z,4E)dienoyl(10-Me) = CC(C)CCCC/C=C/C=C\C(=O)*; Phg(3,5-Cl2-4-OH) = N[C@H](C(=O)O)c1cc(Cl)c(O)c(Cl)c1; X1 = N=C1NC[C@@H](C[C@@H](N[*:1])C(=O)[*:2])N1; X2 = N=C1NC[C@@H](C[C@H](N[*:1])C(=O)[*:2])N1; d(aThr) = C[C@@H](O)[C@@H](N)C(=O)O; dHpg = N[C@@H](C(=O)O)c1ccc(O)cc1; Hpg = N[C@H](C(=O)O)c1ccc(O)cc1; Cit = NC(=O)NCCC[C@H](N)C(=O)O; aThr = C[C@H](O)[C@H](N)C(=O)O; dOrn = NCCC[C@@H](N)C(=O)O

Columns and labels:
mouse = details: in vivo, ip; cited from earlier work
rat = details: in vivo, iv; cited from earlier work
[1] = target: T1, prolyl endopeptidase derived from human placenta (Homo sapiens, UniProt P48147); experiment: Prolyl endopeptidase inhibitive activity, human placenta enzyme (fluorometric, Z-Gly-Pro-7-AMC substrate); format: biochemical; parameters: obtaining a supernatant, from which microsome fractions had been removed, as a prolyl endopeptidase fraction; from tissue; host or cells: human placenta, cytosol fraction (104,000 x g supernatant), crude enzyme
T1 sequence (P48147 1-710): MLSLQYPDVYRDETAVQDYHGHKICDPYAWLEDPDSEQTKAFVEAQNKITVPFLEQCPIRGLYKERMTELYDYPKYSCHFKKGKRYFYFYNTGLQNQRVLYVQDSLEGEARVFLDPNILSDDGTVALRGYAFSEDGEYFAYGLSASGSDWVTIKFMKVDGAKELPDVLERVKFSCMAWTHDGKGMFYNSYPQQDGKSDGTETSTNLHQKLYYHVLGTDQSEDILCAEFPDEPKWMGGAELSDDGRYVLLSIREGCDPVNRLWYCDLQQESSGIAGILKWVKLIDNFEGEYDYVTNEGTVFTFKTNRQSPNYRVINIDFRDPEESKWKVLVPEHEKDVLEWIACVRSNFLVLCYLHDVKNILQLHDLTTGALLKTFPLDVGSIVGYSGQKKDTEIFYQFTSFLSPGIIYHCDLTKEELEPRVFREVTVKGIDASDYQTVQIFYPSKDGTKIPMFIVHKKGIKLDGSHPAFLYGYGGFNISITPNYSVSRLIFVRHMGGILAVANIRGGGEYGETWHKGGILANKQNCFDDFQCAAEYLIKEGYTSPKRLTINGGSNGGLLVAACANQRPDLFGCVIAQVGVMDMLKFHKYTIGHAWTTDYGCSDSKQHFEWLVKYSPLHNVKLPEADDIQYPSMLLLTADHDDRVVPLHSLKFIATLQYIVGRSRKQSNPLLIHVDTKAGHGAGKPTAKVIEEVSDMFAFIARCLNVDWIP
Protocol: (§1) The inhibitive activity of enduracidin A was measured by using a methanol solution of this compound.
(§2) The prolyl endopeptidase inhibitive activity in the present invention was measured by the following method. Prolyl endopeptidase from human placenta was prepared according to the method for preparing aromatase [Chem. Pharm. […] The placenta tissues were pulverized and homogenized with a 67 mM potassium phosphate buffer (pH 7.5) containing 5 mM DTT and 0.25 M sucrose. The homogenized solution was centrifuged at 10,000 x g for 30 minutes to obtain a supernatant.
To carry out the enzyme reaction, 0.01 ml of each sample dissolved in methanol in various concentrations and 0.01 ml of the placenta cytosol fraction were added to 0.96 ml of a 0.1 M Tris-HCl buffer solution (pH 7.0), and the resulting solution was mixed and incubated at 37°C for 5 minutes. The reaction was initiated by the addition of 0.02 ml of a 2 mM solution of synthesized substrate, Z-Gly-Pro-7-AMC (a product of Cambridge Research Biochemicals), dissolved in 40% dioxane to said solution, and continued for 10 minutes at 37°C. […]
(§3) The inhibition rate was determined by the formula, [(A-B)/A] x 100 (%), wherein A represents a fluorescent concentration of liberated 7-AMC in the reaction of the control and B is a fluorescent concentration of liberated 7-AMC in the reaction to which a sample was added.

[2] = target: T2, prolyl endopeptidase derived from Flavobacterium (Elizabethkingia meningoseptica, UniProt P27028); format: biochemical; details: Table 1; enzyme from Flavobacterium; read-out: IC₅₀ (µM) Flavobacterium
T2 construct: purchased Seikagaku Kogyo Co
T2 sequence (P27028 21-705): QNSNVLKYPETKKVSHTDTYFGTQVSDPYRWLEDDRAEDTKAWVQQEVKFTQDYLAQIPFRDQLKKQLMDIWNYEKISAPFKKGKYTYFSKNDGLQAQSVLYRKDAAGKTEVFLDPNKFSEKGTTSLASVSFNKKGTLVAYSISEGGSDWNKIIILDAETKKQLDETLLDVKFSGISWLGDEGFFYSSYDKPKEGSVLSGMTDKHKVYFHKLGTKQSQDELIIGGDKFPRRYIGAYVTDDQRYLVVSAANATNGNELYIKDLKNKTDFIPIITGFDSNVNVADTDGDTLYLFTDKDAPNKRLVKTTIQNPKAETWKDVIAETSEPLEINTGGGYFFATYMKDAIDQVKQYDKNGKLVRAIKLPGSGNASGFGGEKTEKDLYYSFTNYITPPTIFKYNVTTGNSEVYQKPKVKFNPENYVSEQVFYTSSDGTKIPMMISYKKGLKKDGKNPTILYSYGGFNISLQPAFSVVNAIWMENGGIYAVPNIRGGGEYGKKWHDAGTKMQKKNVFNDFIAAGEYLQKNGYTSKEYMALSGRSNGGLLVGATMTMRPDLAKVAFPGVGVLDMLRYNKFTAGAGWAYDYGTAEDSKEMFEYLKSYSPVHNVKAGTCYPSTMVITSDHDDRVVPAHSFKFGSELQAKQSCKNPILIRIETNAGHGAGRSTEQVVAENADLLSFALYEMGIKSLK
Protocol: as §1, §3

[3] = target: T1, prolyl endopeptidase derived from human placenta; experiment: Prolyl endopeptidase inhibitive activity, human placenta enzyme (fluorometric, Z-Gly-Pro-7-AMC substrate); format: biochemical; parameters: obtaining a supernatant, from which microsome fractions had been removed, as a prolyl endopeptidase fraction; from tissue; host or cells: human placenta, cytosol fraction (104,000 x g supernatant)
Protocol: as §1, §2
To carry out the enzyme reaction, 0.01 ml of each sample dissolved in methanol in various concentrations and 0.01 ml of the placenta cytosol fraction were added to 0.96 ml of a 0.1 M Tris-HCl buffer solution (pH 7.0), and the resulting solution was mixed and incubated at 37°C for 5 minutes. The reaction was initiated by the addition of 0.02 ml of a 2 mM solution of synthesized substrate, Z-Gly-Pro-7-AMC (a product of Cambridge Research Biochemicals), dissolved in 40% dioxane to said solution, and continued for 10 minutes at 37°C. After the reaction, 0.5 ml of a reaction termination agent (10 g of Triton X-100/95 ml, 1 M acetate buffer, pH 4.0) and 2 ml of water were added to measure 7-AMC (7-amino-4-methylcoumarin) liberated by the reaction at an excitation wavelength of 380 nm and an emission wavelength of 460 nm.
as §3

[4] = comparison of both enzymes, in words

Structure (SMILES): CC(C)CCCC/C=C/C=C\C(=O)N[C@@H](CC(=O)O)C(=O)N[C@@H]1C(=O)N[C@H](c2ccc(O)cc2)C(=O)N[C@H](CCCN)C(=O)N[C@H]([C@@H](C)O)C(=O)N[C@@H](c2ccc(O)cc2)C(=O)N[C@H](c2ccc(O)cc2)C(=O)N[C@@H]([C@H](C)O)C(=O)N[C@@H](CCCNC(N)=O)C(=O)N[C@H](C[C@@H]2CNC(=N)N2)C(=O)N[C@@H](c2ccc(O)cc2)C(=O)N[C@H](CO)C(=O)N[C@@H](c2cc(Cl)c(O)c(Cl)c2)C(=O)NCC(=O)N[C@@H](C[C@@H]2CNC(=N)N2)C(=O)N[C@H](C)C(=O)N[C@@H](c2ccc(O)cc2)C(=O)O[C@@H]1C [Enduracidin A] ({Undeca(2Z,4E)dienoyl(10-Me)}-DT[dHpg][dOrn][d(aThr)][Hpg][dHpg][aThr][Cit][X1][Hpg][dS][Phg(3,5-Cl2-4-OH)]G[X2][dA][Hpg]; ester 2-C)
- acute toxicity LD₅₀ (mouse): greater than 400 mg/kg
- acute toxicity LD₅₀ (rat): > 300 mg/kg
- mode of inhibition ([1]; Dixon Plot, enzyme from human placenta): noncompetitive inhibition
- specificity: inhibitive activity to enzyme from human placenta compared with enzyme from Flavobacterium [1, 4]: much higher specificity to the enzyme derived from human placenta

Structure (SMILES): CC[C@H](C)[C@H](NC(=O)[C@H](Cc1ccccc1)NC(=O)[C@@H](NC(=O)[C@H](Cc1c[nH]cn1)NC(=O)CNC(=O)CNC(=O)[C@H](Cc1ccccc1)NC(=O)[C@H](CC(C)C)NC(=O)[C@@H]1CC(=O)NCC(=O)N[C@@H](Cc2ccc(O)cc2)C(=O)N2CCC[C@H]2C(=O)N[C@@H](Cc2c[nH]c3ccccc23)C(=O)N[C@@H](Cc2c[nH]c3ccccc23)C(=O)N[C@@H](CC(=O)O)C(=O)N[C@@H](Cc2ccc(O)cc2)C(=O)N[C@@H](CCCNC(=N)N)C(=O)N1)[C@@H](C)O)C(=O)N[C@@H](CO)C(=O)N1CCC[C@H]1C(=O)O [SNA-115] (GYPWWDYRDLFGGHTFISP-OH; lactam N-9)
- IC50 [2]: 0.35 µM
- IC50 ([3]; Table 1, enzyme from human placenta, read-out: IC₅₀ (µM) Human placenta): 0.22 µM
- specificity: inhibitive activity to enzyme from human placenta compared with enzyme from Flavobacterium [3, 4]: almost the same degree of inhibitive activity

Structure (SMILES): CN[C@@H]1C[C@H]2O[C@@](C)([C@@H]1OC)n1c3ccccc3c3c4c(c5c6ccccc6n2c5c31)C(=O)NC4 [Staurosporine]
- IC50 [3]: > 107 µM
- inhibitive activity to the enzyme derived from human placenta ([3]; result in words): very weak inhibitive activity
